# Experimental data reported in US10562912B2 (C&C Research Laboratories, priority 2013, dated 2020).
# Experiments:
# Format in all cases: cell-based
# AGS = assay: Cell growth inhibition assay, stomach cancer cell line AGS; conditions: Homo sapiens; AGS stomach cancer cell line, 3,000 cells/well
# Procedure: The inhibitory effects of the compounds of the present invention against the growth of cancer cells were evaluated as shown below. The cancer cell lines including stomach cancer cell line (AGS), breast cancer cell lines (MDA-MB-231, MDA-MB-468, and BT-549), prostate cancer cell lines (LNCaP and DU-145), colon cancer cell line (HCT116), ovarian cancer cell line (SW626), liver cancer cell line (Hep3B), kidney cancer cell line (ACHN), lung cancer cell line (NCI-H23) and blood cancer cell lines (HEL92.1.7 and U266) were cultured under the protocol provided by each supplier. A medium supplemented with 10 ng/mL of IL-6 was used for LNCaP, a prostate cancer cell line, when treated with a drug. Each type of cells to be used in experiments were sub-cultured in a 96-well plate by counting the exact number of cells using Tali™ Image-based Cytometer (Life Technologies). In a 96-well plate, AGS, HCT116, and DU-145 were employed with 3,000 cells/well; NCI-H23, SW626, Hep3B, ACHN, BT-549, MDA-MB-231, HEL92.1.7, and U266 were employed with 5,000 cells/well; and LNCaP and MDA-MB-468 were employed with 10,000 cells/well. The cells were treated with the compounds listed in Examples which were diluted in various concentrations. Upon completion of the compounds treatment, AGS, HCT116, SW626, DU145, NCI-H23, Hep3B, ACHN, BT-549, LNCaP, HEL92.1.7, and U266 cells were cultured at 37° C. under 5% CO2 for from 72 to 96 hours, and MDA-MB-231 and MDA-MB-468 cells were cultured at 37° C. in air for from 72 to 96 hours. Subsequently, the cells were observed under microscope and drug precipitation and particular findings were investigated and recorded. And then, the 96-well plate was placed at room temperature for 30 minutes, added with 20 μL/well of CellTiter-Glo solution (Cat No. G7573, Promega) and shaken for 10 minutes, followed by being subjected to the measurement using PHERAstar™ microplate reader (BMG LABTECH) according to the supplier's general luminometer protocol. Wells where only culture liquid added without cell plating were used as a negative control, whereas wells where culture liquid containing 0.1% DMSO instead of the compounds listed in Examples were used as a positive control.
# LNCaP = assay: Cell growth inhibition assay, prostate cancer cell line LNCaP (medium with 10 ng/mL IL-6); conditions: Homo sapiens, medium supplemented with 10 ng/mL of IL-6, 10,000 cells/well
# STAT3 = target: T1, STAT3 (Homo sapiens, UniProt P40763); assay: STAT3 reporter gene assay (luciferase), LNCaP stable cell line (pSTAT3-TA-luc), IL-6 stimulation
# T1 construct: plasmid pSTAT3-TA-luc), which contains a stably operating STAT3 promoter; endogenous in cells
# T1 sequence (P40763 whole entry): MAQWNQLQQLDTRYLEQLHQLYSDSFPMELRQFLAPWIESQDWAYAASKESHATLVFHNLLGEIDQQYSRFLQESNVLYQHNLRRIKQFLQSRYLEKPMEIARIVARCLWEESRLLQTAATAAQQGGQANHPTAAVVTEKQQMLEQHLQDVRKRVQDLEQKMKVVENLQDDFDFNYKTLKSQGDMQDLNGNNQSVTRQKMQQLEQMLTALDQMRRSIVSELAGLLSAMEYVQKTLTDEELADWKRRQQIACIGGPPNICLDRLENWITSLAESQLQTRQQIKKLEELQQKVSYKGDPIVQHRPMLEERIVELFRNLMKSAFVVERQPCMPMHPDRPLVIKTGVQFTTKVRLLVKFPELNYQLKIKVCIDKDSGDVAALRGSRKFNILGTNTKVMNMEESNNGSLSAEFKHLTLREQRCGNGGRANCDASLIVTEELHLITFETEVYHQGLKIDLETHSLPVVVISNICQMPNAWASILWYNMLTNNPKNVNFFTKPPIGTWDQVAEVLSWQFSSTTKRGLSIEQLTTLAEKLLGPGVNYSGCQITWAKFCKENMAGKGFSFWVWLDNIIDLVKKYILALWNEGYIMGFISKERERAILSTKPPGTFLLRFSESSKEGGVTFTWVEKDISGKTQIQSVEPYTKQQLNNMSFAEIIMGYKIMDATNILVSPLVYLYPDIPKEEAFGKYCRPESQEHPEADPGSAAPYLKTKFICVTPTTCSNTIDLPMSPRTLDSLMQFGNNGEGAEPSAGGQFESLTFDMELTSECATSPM
# Summary of the method: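 LNCaP cells stably carrying pSTAT3-TA-luc, in RPMI1640 with 3% DCC-FBS, were treated with compound and then stimulated with 10 ng/mL IL-6 for 24–48 h at 37 °C. Luciferase activity was measured in lysates. A parallel plate measured viability by CellTiter-Glo, with stimulated 0.1% DMSO wells as the positive control.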
SMILES,IC50 (AGS),IC50 (LNCaP),IC50 (STAT3)
"CN(C(=O)c1cc2ccc(NS(C)(=O)=O)cc2[nH]1)c1cccc(-c2ccc(F)cc2F)c1 [Example 280, N-(2′,4′-difluoro-[1,1′-biphenyl]-3-yl)-N-methyl-6-(methylsulfonamido)-1H-indole-2-carboxamide]",2.7 µM,2.7 µM,1.7 µM
"COC(=O)c1cc(-c2cccc(NC(=O)c3cc4ccc([N+](=O)[O-])cc4[nH]3)c2)c(C(F)(F)F)cc1OC [Example 288, methyl 4-methoxy-3′-(6-nitro-1H-indole-2-carboxamido)-6-(trifluoromethyl)-[1,1′-biphenyl]-3-carboxylate]",> 50 µM,> 10 µM,> 10 µM
"CS(=O)(=O)Nc1ccc2cc(C(=O)Nc3cccc(-c4cnccc4C(F)(F)F)c3)[nH]c2c1 [Example 291, 6-(methylsulfonamido)-N-(3-(4-(trifluoromethyl)pyridin-3-yl)phenyl)-1H-indole-2-carboxamide]",13.9 µM,8.1 µM,3.2 µM
"CC(C)(C)OC(=O)n1c(C(=O)Nc2cccc(-c3ccccc3C(F)(F)F)c2)cc2ccc([N+](=O)[O-])cc21 [Example 263, tert-butyl 6-nitro-2-((2′-(trifluoromethyl)-[1,1′-biphenyl]-3-yl)carbamoyl)-1H-indole-1-carboxylate]",> 50 µM,8 µM,> 10 µM
"O=C(Nc1cc(-c2ccc(F)cc2F)ccn1)c1cc2ccc(NS(=O)(=O)C3CC3)cc2[nH]1 [Example 278, 6-(cyclopropanesulfonamido)-N-(4-(2,4-difluorophenyl)pyridin-2-yl)-1H-indole-2-carboxamide]",20 µM,5.9 µM,4.5 µM
"Cc1c(C(=O)Nc2cccc(-c3ccccc3C(F)(F)F)c2)[nH]c2ccc([N+](=O)[O-])cc12 [Example 228, 3-methyl-5-nitro-N-(2′-(trifluoromethyl)-[1,1′-biphenyl]-3-yl)-1H-indole-2-carboxamide]",41.4 µM,> 10 µM,> 10 µM
"O=C(Nc1cccc(-c2ccccc2C(F)(F)F)c1)c1nc2cc([N+](=O)[O-])ccc2[nH]1 [Example 234, 5-nitro-N-(2′-(trifluoromethyl)-[1,1′-biphenyl]-3-yl)-1H-benzo[d]imidazole-2-carboxamide]",1.6 µM,1.56 µM,> 10 µM
"CS(=O)(=O)Nc1ccc2cc(C(=O)Nc3cccc(-c4ccc(C#N)cc4C(F)(F)F)c3)[nH]c2c1 [Example 284, N-(4′-cyano-2′-(trifluoromethyl)-[1,1′-biphenyl]-3-yl)-6-(methylsulfonamido)-1H-indole-2-carboxamide]",11.3 µM,3.1 µM,1.9 µM
"COC(=O)c1ccc(Cl)c(-c2cccc(NC(=O)c3cc4ccc([N+](=O)[O-])cc4[nH]3)c2)c1 [Example 298, methyl 6-chloro-3′-(6-nitro-1H-indole-2-carboxamido)-[1,1′-biphenyl]-3-carboxylate]",31.7 µM,> 10 µM,> 10 µM
"CNS(=O)(=O)Nc1ccc2cc(C(=O)Nc3cccc(-c4ccc(F)cc4F)c3)[nH]c2c1 [Example 257, N-(2′,4′-difluoro-[1,1′-biphenyl]-3-yl)-6-((N-methylsulfamoyl)amino)-1H-indole-2-carboxamide]",11 µM,2.8 µM,3.5 µM
"COc1ccc(-c2cccc(NC(=O)c3cc4ccc(NS(C)(=O)=O)cc4n3C(=O)OC(C)(C)C)c2)c(F)c1 [Example 296, tert-butyl 2-((2′-fluoro-4′-methoxy-[1,1′-biphenyl]-3-yl)carbamoyl)-6-(methylsulfonamido)-1H-indole-1-carboxylate]",> 50 µM,> 10 µM,> 10 µM
"CS(=O)(=O)Nc1ccc2cc(C(=O)Nc3cccc(C(F)(F)c4ccncc4)c3)[nH]c2c1 [Example 388, N-(3-(difluoro(pyridin-4-yl)methyl)phenyl)-6-(methylsulfonamido)-1H-indole-2-carboxamide]",9.8 µM,8.2 µM,3.8 µM
"CS(=O)(=O)Nc1ccc2cc(C(=O)Nc3cccc(S(=O)(=O)c4cccc(CC#N)c4)c3)[nH]c2c1 [Example 412, N-(3-((3-(cyanomethyl)phenyl)sulfonyl)phenyl)-6-(methylsulfonamido)-1H-indole-2-carboxamide]",22 µM,> 10 µM,3.4 µM
"COc1ccc(F)c(-c2ccnc(NC(=O)c3cc4ccc([N+](=O)[O-])cc4[nH]3)c2)c1 [Example 297, N-(4-(2-fluoro-5-methoxyphenyl)pyridin-2-yl)-6-nitro-1H-indole-2-carboxamide]",21.6 µM,8.6 µM,> 10 µM
"CS(=O)(=O)Nc1ccc2cc(C(=O)Nc3cc(-c4ccc(F)cc4F)ccn3)[nH]c2c1 [Example 279, N-(4-(2,4-difluorophenyl)pyridin-2-yl)-6-(methylsulfonamido)-1H-indole-2-carboxamide]",40.7 µM,> 10 µM,6.2 µM
"O=C(Nc1cccc(-c2ccccc2C(F)(F)F)c1)c1nc2ccc([N+](=O)[O-])cc2s1 [Example 232, 6-nitro-N-(2′-(trifluoromethyl)-[1,1′-biphenyl]-3-yl)benzo[d]thiazole-2-carboxamide]",20.5 µM,> 10 µM,> 10 µM
"CS(=O)(=O)Nc1ccc2cc(C(=O)Nc3cccc(S(=O)(=O)c4cccnc4)c3)[nH]c2c1 [Example 404, 6-(methylsulfonamido)-N-(3-(pyridin-3-ylsulfonyl)phenyl)-1H-indole-2-carboxamide]",30.3 µM,> 10 µM,> 10 µM
"CN(c1ccc2cc(C(=O)Nc3cccc(-c4ccccc4C(F)(F)F)c3)n(C)c2c1)S(C)(=O)=O [Example 343, 1-methyl-6-(N-methylmethylsulfonamido)-N-(2′-(trifluoromethyl)-[1,1′-biphenyl]-3-yl)-1H-indole-2-carboxamide]",5.8 µM,2.8 µM,1.8 µM
"CS(=O)(=O)Nc1ccc2cc(C(=O)Nc3cccc(S(=O)(=O)c4ccc5sccc5c4)c3)[nH]c2c1 [Example 409, N-(3-(benzo[b]thiophen-5-ylsulfonyl)phenyl)-6-(methylsulfonamido)-1H-indole-2-carboxamide]",17.3 µM,> 10 µM,2.9 µM
"COC(=O)c1ccc(Cl)c(-c2cccc(NC(=O)c3cc4ccc(NS(C)(=O)=O)cc4[nH]3)c2)c1 [Example 299, methyl 6-chloro-3′-(6-(methylsulfonamido)-1H-indole-2-carboxamido)-[1,1′-biphenyl]-3-carboxylate]",43.1 µM,> 10 µM,3.1 µM
"CS(=O)(=O)Nc1ccc2cc(C(=O)Nc3cccc(-c4cc(C(N)=O)c(O)cc4C(F)(F)F)c3)[nH]c2c1 [Example 378, N-(5′-carbamoyl-4′-hydroxy-2′-(trifluoromethyl)-[1,1′-biphenyl]-3-yl)-6-(methylsulfonamido)-1H-indole-2-carboxamide]",39.9 µM,> 10 µM,> 10 µM
"CN(c1ccc2cc(C(=O)Nc3cccc(-c4ccc(F)cc4F)c3)n(C)c2c1)S(C)(=O)=O [Example 345, N-(2′,4′-difluoro-[1,1′-biphenyl]-3-yl)-1-methyl-6-(N-methylmethylsulfonamido)-1H-indole-2-carboxamide]",6.9 µM,3.5 µM,1.6 µM
